Measured values from patent US20110166038A1, “SCREENING METHODS FOR HEAT-SHOCK RESPONSE MODULATORS” (SCREENING METHODS FOR HEAT-SHOCK RESPONSE MODULATIORS, priority 2008, published 2011).

Experiments:
Assay type in all cases: cell-based
HSP70 [1] = experiment: MaCRA HCS HSP70 granule assay, heat shock 41° C.; conditions: Homo sapiens, HeLa, read-out: EC50 of HSP granule area
Description: (§1) This experiment was directed to developing of a HSF1/HSP70 high-content screening (HCS) assay for screening HSF1 activators. HeLa cells were pretreated with a compound (celastrol) one hour before heat shock at 41° C. for two hours. The dilution in Dulbecco's Modified Eagle's Medium (DMEM) was 200-fold resulting in a final concentration of 30 μM for screening. A custom made aluminum plate was designed for better heat transduction and to achieve a constant temperature with minimal variability for the 96-well plate. The aluminum plate was placed inside a 41° C. incubator for one day prior to the experiment.
Immunocytochemical staining for HSF1 and HSP70 in HeLa cells was performed as in Zhang et al., Biomol Screen., 13(6):538-543, 2008. Image acquisition was performed using an INcell 1000 (GE Healthcare, Piscataway, N.J.) integrated with a Twister II (Caliper Life Sciences, Hopkinton, Mass.) for automated plate delivery. […]
A Multi Target Analysis Module (MTA) module from Workstation software (GE Healthcare) provides a high-speed measurement of nuclear granules including granule count, granule area, granule intensity and nuclear intensity CV (CV of pixel intensity in the nucleus). FIGS. 2A and 2B provide a quantification of HSF1 variables via granule count and nuclear intensity CV. FIGS. 2C and 2D adopted granule count and granule area for the quantification of HSP70 granules. […]

HSF1 [2] = experiment: MaCRA HCS HSF1 granule assay, heat shock 41° C.
Description: as §1
Immunocytochemical staining for HSF1 and HSP70 in HeLa cells was performed as in Zhang et al., Biomol Screen., 13(6):538-543, 2008. Image acquisition was performed using an INcell 1000 (GE Healthcare, Piscataway, N.J.) integrated with a Twister II (Caliper Life Sciences, Hopkinton, Mass.) for automated plate delivery. Image analysis was carried out using a Multi Target Analysis module from Workstation 3.6. Algorithms for HSF1/HSP70 granule count, granule area and nuclear intensity CV were established according to assay conditions and manufacture instructions. EC50 values and curve fitting were performed using a Prism 4.0 (GraphPad Software, San Diego, Calif.) with nonlinear regression analysis.
A Multi Target Analysis Module (MTA) module from Workstation software (GE Healthcare) provides a high-speed measurement of nuclear granules including granule count, granule area, granule intensity and nuclear intensity CV (CV of pixel intensity in the nucleus). FIGS. 2A and 2B provide a quantification of HSF1 variables via granule count and nuclear intensity CV. FIGS. 2C and 2D adopted granule count and granule area for the quantification of HSP70 granules.
By comparison, DMSO-treated cells contain, on average, 2.46±0.22 granules. To achieve a relatively low background, HeLa cells that contained more than 5 HSF1 granules were designated as “HSF1 granule positive cells”. The thresholds for HSF1 nuclear intensity CV, HSP70 granule count and HSP70 granule area were also chosen with gating values equivalent to the average of DMSO treated samples plus 2 or more standard deviations (FIG. 2B-2D).
Experiment 3: HeLa cells were seeded in Costar 96-well assay plates (Costar 3904) at a density of 8,000 cells/well approximately 16 to 24 hours before compound treatment. Subsequently, the cells were treated with DMSO. […] Heat shock was carried out at 41° C. for 2 hours with no recovery time. Immediately following heat shock, 50 μL of 16% para-formaldehyde was mixed with the culture medium (total volume at 150 μL) to a final concentration of 4%. The plates were incubated at room temperature for 30 minutes before washing with PBS. […]

SH-SY5Y cells = experiment: Rotenone model, MTS readout; conditions: 100 nM for 24 hours
Source text: This experiment tests the hits from the MaCRA HSF1 activator screening in a secondary rotenone assay for cytoprotective effects of test compounds on SHSY5Y cells. The rotenone model of Parkinson's disease is an in vitro system for study of protein aggregation induced cytotoxicity. […] See Greenamyre et al., Parkinsonism Relat. Disord., Suppl 2:S59-S64 (2003). Therefore, this in vitro system may be adopted to evaluate cytoprotective effects of the HSF1/HSP70 MaCRA screening hits as carried out essentially as described in Sherer et al., J. Neuroscience, 23(34):10756-10764, 2003. […] In summary, the small molecule HSF1/HSP70 amplifier identified from our HSF1/HSP70 screening can rescue cells from two different stress conditions with cytoprotective benefits, possibly through the mechanism of HSF1/HSP70 amplification.

HSP70 [3] = experiment: HSP70 inhibitor assay, heat shock 43° C.; conditions: HeLa, 1 μM triptolide or 10 μM CYT compound, 43° C. 1-4 hours, recovery 0-7 hours
Description: (§2) Experiment 2: HeLa cells were treated with 1 μM of Triptolide and 10 μM of CYT975 (▪), CYT1563 (▴) and CYT1590 ([…]) 30 minutes before heat shock. The cells subsequently underwent heat shock at 43° C. for 1 hour with 0, 5 or 7 hours recovery time with total HSP70 nuclear and cell intensity as the threshold.
as §2, with “Experiment 3:” for “Experiment 2:”, “for 2 hours” for “for 1 hour”, “0, 4” for “0, 5”, “or 6” for “or 7”
as §2, with “4:” for “2:”, “3 hours” for “1 hour”, “0, 3 or” for “0,”, “5” for “5 or 7”, “threshold. […]” for “threshold.”
Experiment 3: HSP70 expression induced by Triptolide (▪), CYT1563 (▴) and DMSO (0, control) was evaluated in a 96-well plate format (See Example 4) following heat shock at 43° C. for 2 hours with 4 hours recovery time. […]
Experiment 4: HSP70 expression induced by Triptolide (▪), CYT1563 (▴) and DMSO (♦, control) was evaluated in a 96-well plate format (See Example 4) following heat shock at 43° C. for 4 hours with 4 hours recovery time. […]

HSF1 [4] = experiment: HSF1 granule inhibitor assay, heat shock 43° C.; conditions: HeLa, 10 nM-10 μM, 43° C. 1-4 hours, threshold 5 granules/nucleus
Description: Experiment 1: HeLa cells were treated with four different […] (10 nM, 100 nM, 1 μM and 10 μM) of triptolide and subsequently underwent heat shock at 43° C. for 1 to 4 hours. […] HSF1 granule count was measured with 5 granules/nucleus used as the threshold. Similar assay conditions were used to test the effect of various compounds selected using MaCRA methods as described herein.
Experiment 1: HSF1 granule formation induced by Triptolide (▪), CYT1563 (▴) and DMSO (♦, control) was evaluated in a 96-well plate format (See Example 4) following heat shock at 43° C. for 2 hours with no recovery time. FIG. 26A illustrates the HSF1 inhibition.
Experiment 2: HSF1 granule formation induced by Triptolide (▪), CYT1563 (▴) and DMSO (♦, control) was evaluated in a 96-well plate format (See Example 4) following heat shock at 43° C. for 4 hours with 4 hours recovery time. FIG. 26B illustrates the HSF1 inhibition.
HeLa cells were treated with DMSO (♦) or CYT 1563 (10 μM) (▪) and subsequently heat shocked at 43° C. for 2 h with no recovery time using HSF1 granule count in a 384-well plate format (See Example 10). Results including the Z′ values and Signal/Background (S/B) ratio are illustrated in FIG. 27.

CC1=C(O)C(=O)C=C2C1=CC=C1[C@@]2(C)CC[C@@]2(C)[C@@H]3C[C@](C)(C(=O)O)CC[C@]3(C)CC[C@]12C [celastrol]
EC50 (HSP70 [1]): 0.65 µM
HSF1 granule positive cells (HSF1 [2]; 96-well, 2 μM, 41° C. 2 h, HSF1 granule count): 59.36%
average HSF1 stress granules per nucleus (HSF1 [2]; HeLa, 2 μM, 41° C. for two hours): 5.34±0.72 granules per nucleus
HSF1 stress granules per nucleus, positive control at 43° C. (HSF1 [2]; HeLa, heat shock 43° C.): about 6.56
EC50 (HSF1 [2]; Homo sapiens, HeLa, read-out: EC50 of HSF1 intensity CV): 1.32 µM

C=C(C)[C@H]1Cc2c(ccc3c2O[C@@H]2COc4cc(OC)c(OC)cc4[C@@H]2C3=O)O1 [rotenone]
SH-SY5Y cells killed (SH-SY5Y cells): more than 42%

CC(C)[C@]12O[C@H]1[C@@H]1O[C@]13[C@]1(O[C@H]1C[C@H]1C4=C(CC[C@@]13C)C(=O)OC4)[C@@H]2O [triptolide]
HSP70 expression after heat shock (HSP70 [3]): reduction of HSP70 expression
inhibition of HSF1 granule formation (HSF1 [4]): dose dependent inhibition of HSF1 granule formation
